Consider 5 molecules from US20250090996A1, “ACID GAS REMOVAL METHOD, ACID GAS ABSORBENT, AND ACID GAS REMOVAL APPARATUS” (KABUSHIKI KAISHA TOSHIBA, priority 2023, published 2025).

A short description of data set [1]: Amount of compound dissolved in water (total organic carbon of lower aqueous phase). The format is physicochemical. The following applies: 25° C., atmospheric pressure, converted from total organic carbon of lower phase. An excerpt: An acid gas absorbent according to the embodiment contains an amine compound and water, as main agents for absorbing an acid gas. The amine compound used here is a liquid amine compound having a secondary amine structure. An acid gas remover contains a mixture of the liquid amine compound and water, and an amount of a salt to be dissolved in water is larger than an amount of the liquid amine compound itself to be dissolved in water, the salt being formed from the liquid amine compound and the acid gas. Here, the liquid amine compound is an amine compound that is liquid at 25° C. under atmospheric pressure. An amount of the liquid amine compound to be dissolved at room temperature is generally small, and, for example, an amount of the liquid amine compound to be dissolved in water at 25° C. is 50,000 mg/L or less. Upon contact of the liquid amine compound with the acid gas, a salt is formed, and is ionized when water coexists, to increase the dissolved amount. The amount of such a salt to be dissolved is, for example, 2 times or more, preferably 5 times or more, and more preferably 10 times or more the amount of the liquid amine to be dissolved as a base at 25° C. In the present embodiment, the dissolved amount (mg/L) is a mass (mg) of the liquid amine based on a total volume (L) of water and the liquid amine compound.
(§1) When a compound (a-1) of General Formula (a) wherein R^1 and R^3 are 1-ethylpropyl groups and R^2 is C3 linear alkyl and water were blended at a mass ratio of 50:50, two phases of an organic phase (amine compound phase) as an upper phase and an aqueous phase as a lower phase were formed. […] The temperature in the column was changed in a range of 60° C. to 70° C., and an inert gas was caused to flow at 50 ml/min. […] Here, the amount of carbon dioxide saturated and absorbed is a value obtained by measuring the amount of inorganic carbon in the acid gas absorbent with an infrared gas concentration measuring apparatus. The amount of this compound dissolved was 18,000 mg/L at 25° C. and under atmospheric pressure. The amount of the compound dissolved was determined by sampling the lower phase of the two phases fractionated, measuring the total organic carbon concentration with a total organic carbon meter TOC-L (trade name) manufactured by Shimadzu Corporation, and converting it into the amount of amine dissolved from the chemical formula of the compound (a-1).

The nature of data set [2]: Phase state of amine/water mixture before and after carbon dioxide absorption. The format is physicochemical. As to conditions: for phase state after absorbing carbon dioxide: mixture with water 50:50 after CO2:N2=1:9 bubbling; for phase state when blended with water: ratio 50:50, before carbon dioxide absorption, organic upper phase, aqueous lower phase.
Excerpt: Here, in the present embodiment, the “state in which the organic phase and the aqueous phase are phase-separated” means that, for example, a mixture of water and a liquid amine has a relationship in which a state in which the organic phase and the aqueous phase are phase-separated, in other words, a boundary between the organic phase and the aqueous phase can be visually confirmed. Here, in the present embodiment, the organic phase is a phase containing the liquid amine compound as a main component in a state of being phase-separated, and is also a phase containing a high concentration of the liquid amine compound in a state of being separated from the acid gas. The aqueous phase is a phase containing water as a main component in a state of being phase-separated. At a high carbon dioxide concentration, the acid gas absorbent has an increased amount of the liquid amine compound to be dissolved in water, and the liquid amine compound is dissolved in an aqueous solution. In the acid gas absorbent, the organic phase and the aqueous phase are not phase-separated in this state (the acid gas absorbent has one phase). At a low acid gas concentration, the acid gas absorbent is decreased in solubility of the liquid amine compound in water, and is phase-separated into an aqueous phase and an organic phase containing a high concentration of the liquid amine compound. When the acid gas absorbent is phase-separated, the organic phase and the aqueous phase typically form complete two phases. However, in the present embodiment, even when it is not completely phase-separated, the organic phase and the aqueous phase are referred to as “two phases” in a case where a boundary between the phases can be confirmed.
Hereinafter, Examples of the embodiment will be described. In the following Examples, conditions before heating the acid gas absorbent were 25° C. and atmospheric pressure.
as §1

Data set [3] can be described thus: Regeneration (carbon dioxide release) on heated molecular sieve 4A column. As to conditions: column 60° C. to 70° C., inert gas 50 ml/min, fractionated. As to the method: as §1
The nature of data set [4]: S concentration of aqueous phase after adding sulfuric acid (ICP). It counts as physicochemical. The following applies: 1 ml of 1 mol/l sulfuric acid added to 30 ml of mixture with water (volume ratio 50:50), after stirring. As to the method:
When the compound (a-1) and water were blended at a volume ratio of 50:50, two phases of an organic phase as an upper phase and an aqueous phase as a lower phase were formed. One (1) ml of 1 mol/1 sulfuric acid was added to 30 ml of the mixture, and, after stirring, the S concentration of the aqueous phase was measured by ICP. As a result, the S concentration was 17.6 mg-S/L (Reference Example 1).

Data set [5] is described as follows: Phase state of amine/water mixture before and after carbon dioxide absorption. The following applies: volume ratio 50:50. It counts as physicochemical.

`CCC(CC)NCCCNC(CC)CC` [compound (a-1)]: the “amount of compound dissolved” value in data set [1] is listed as 18,000 mg/L. In addition, in data set [2], the “phase state after absorbing carbon dioxide” value was “formed one phase” and the “phase state when blended with water” value was “two phases”. For the same molecule, the “phase state of mixture after passing through column” value (“phase state of mixture” for short) in data set [3] is reported as “two phases were formed”. Also, in data set [4], the “S concentration of the aqueous phase” value amounted to 17.6 mg-S/L. Besides, the “phase state when blended with water” value in data set [5] is “two phases”.

On to `CCC(CC)NCCCN(C)CCCNC(CC)CC` [compound (b-1)], for which the “amount of compound dissolved” value in data set [1] is 22,000 mg/L. Besides, in data set [2], the “phase state after absorbing carbon dioxide” value is “formed one phase” and the “phase state when blended with water” value is given as “two phases”. Besides, in data set [3], the “phase state of mixture” value is on record as “two phases were formed”.

On to `CC(C)CC(C)NCCCN(C)CCCNC(C)CC(C)C` (stereo not shown) [compound (b-2)], for which the “amount of compound dissolved” value in data set [1] is on record as 4,000 mg/L. In data set [2], the “phase state after absorbing carbon dioxide” value is recorded as “formed one phase” and the “phase state when blended with water” value was “two phases”. The “phase state of mixture” value in data set [3] is listed as “two phases were formed”.

Turning to `CC(C)CC(C)NCCCNCCCNC(C)CC(C)C` (stereo not shown) [compound (b-3)], in data set [1], the “amount of compound dissolved” value was 11,000 mg/L. In addition, in data set [2], the “phase state after absorbing carbon dioxide” value was “formed one phase” and the “phase state when blended with water” value was “two phases”. Besides, in data set [3], the “phase state of mixture” value was “two phases were formed”.

For the molecule `CC(C)N(C)C(C)C` [diisopropylmethylamine, reference compound], the “phase state when blended with water” value in data set [2] is reported as “two phases”.
